The source of these data is US9833433B1, “Compositions, methods of use, and methods of treatment” (priority 2013, dated 2017).

The subject of series [1] is hippocampal LTP at CA3-CA1 and perforant path synapses. The experiment in a line: Hippocampal LTP (fEPSP recordings in slices, theta-burst stimulation). In kind it is in vivo, mice. The settings on record: 10 mg/kg once daily for 7 days; LTP 24 hr after last injection; CA3-CA1 and perforant path. Here is the method: Hippocampal LTP both at CA3-CA1 and perforant path synapses were recorded in acutely hippocampal slices and induced by a theta-burst stimulation (TBS) as described previously (Hoffman et al., 2007).
Hippocampal slices were prepared from mice as described previously (Chen et al., 2002; Chen et al., 2012; Fan et al., 2010). Briefly, after decapitation, brains were rapidly removed and placed in cold oxygenated (95% O2, 5% CO2) artificial cerebrospinal fluid (ACSF) containing: 125.0 NaCl, 2.5 KCl, 1.0 MgCl2, 25.0 NaHCO3, 1.25 NaH2PO4, 2.0 CaCl2, 25.0 glucose, 3 pyruvic acid, and 1 ascorbic acid. Slices were cut at a thickness of 350-400 μm and transferred to a holding chamber in an incubator containing ACSF at 36° C. for 0.5 to 1 hour, and maintained in an incubator containing oxygenated ACSF at room temperature (˜22-24° C.) for >1.5 h before recordings. Slices were then transferred to a recording chamber where they were continuously perfused with 95% O2, 5% CO2-saturated standard ACSF at ˜32-34° C. Individual pyramidal and dentate granule neurons were viewed with an upright microscope (Olympus BX51WI) fitted with a 60× water-immersion objective and differential interference contrast (DIC) optics.
Field EPSP (fEPSP) recordings both at CA3-CA1 and perforant path synapses in response to stimuli at a frequency of 0.05 Hz were made using an Axoclamp-2B patch-clamp amplifier (Molecular Devices, CA) in bridge mode. Recording pipettes were pulled from borosilicate glass with a micropipette puller (Sutter Instrument), filled with artificial ACSF (2-4 MΩ). […]

In series [2] the test system is dendritic spines of CA1 pyramidal neurons. The experiment in a line: Two-photon imaging of dendritic spines in CA1 pyramidal neurons. The series is classed as in vivo, mice. The settings on record: repeated Δ^9-THC exposure; Thy1-GFP mice. How it is done: Morphology of dendritic spines in hippocampal CA1 pyramidal neurons was determined in GFP-expressing transgenic mice using a two-photon laser scanning microscope as described previously (Chen et al., 2012). Shape, size, and density of spines were measured from the three-dimensional reconstructions using NeuronStudio Version 0.9.92.
Morphology of dendritic spines in hippocampal CA1 pyramidal neurons was determined in GFP-expressing transgenic mice treated with vehicle, Δ^9-THC or NS398+Δ^9-THC using a two-photon laser scanning microscope (Chameleon hands-free ultrafast Ti: sapphire laser with an Olympus scan head) with Olympus FLUOVIEW 300 software (Chen et al., 2012). Shape (thin, mushroom, or stubby), size, density, and volume of spines were measured from the three-dimensional reconstructions (Z stacks: 1μ step for the whole cell and 0.1μ step for a segment of dendrites) using AutoQuant X2 or 3D deconvolution plugin of Image J (http://bigwww.epfl.ch/algorithms/deconvolutionlab) and NeuronStudio (for 3D reconstruction of imaged dendritic spines, Version 0.9.92; http://research.mssm.edu/cnic/tools-ns.html, CNIC, Mount Sinai School of Medicine). […] The following parameters were used in analyzing and quantifying spines using NeuronStudio: Voxel size was set as 0.029*0.029*0.3 μm. […]

Series [3] concerns GluA1, GluN2A, GluN2B. The experiment in a line: Immunoblot and surface biotinylation of glutamate receptor subunits in hippocampus. The series is classed as in vivo. The settings on record: WT mice; Δ^9-THC for 7 days. Here is the method:
Western blot assay was conducted using specific antibodies (Table S1) to determine expressions of COX-2, glutamate receptor subunits, PSD-95, G-protein subunits, phosphoproteins, BACE1 and neprilysin in hippocampal tissue and/or in cultured cells as described previously (Chen et al., 2012). Surface biotinylation assays were performed to determine surface expression of glutamate receptor subunits in hippocampal slices as described previously (Fan et al., 2010).
Surface biotinylation assays were performed in hippocampal slices as described previously (Chen et al., 2006; Fan et al., 2010). Briefly, hippocampal slices were cut at thickness of 400 μm using a vibratome from mice that received vehicle or Δ^9-THC for 7 consecutive days, and then transferred to a six-well plate and incubated on ice for 1 h in carbogenated ACSF containing 500 μM Sulfo-NHS-SS-biotin (Thermo-Pierce, Rockford, Ill.). Collected tissue was then washed three times for 5 min with ice-cold ACSF containing 10 mM glycine, and was immediately homogenized in 800 μL ice-cold lysis buffer containing 20 mM Tris-HCl, pH 7.5, 1% Triton X-100, 50 mM NaCl, 1 mM EDTA, 0.1% sodium dodecyl sulfate, and a cocktail of protease inhibitors (Sigma, St. Louis, Mo.). After incubation on ice for 30 min, the homogenate was centrifuged at 18000 g at 4° C. for 10 min. Supernatants were collected. […]
On the technique in general: In western blotting, separated proteins are transferred to a membrane and probed.

As to `CCCCCc1cc(O)c2c(c1)OC(C)(C)[C@@H]1CCC(C)=C[C@@H]21` [Δ^9-THC, Δ^9-tetrahydrocannabinol], in series [1], the “hippocampal LTP after repeated Δ^9-THC exposure” value is “decreased hippocampal LTP”. In addition, the “density of dendritic spines” value in series [2] is “significantly reduced density of dendritic spines of CA1 pyramidal neurons”. The “total and surface expressions of GluA1, GluN2A, GluN2B (immunoblot)” value in series [3] is reported as “significantly decreased”.
